# Target: T1, Cannabinoid receptor 2 (Rattus norvegicus, UniProt Q9QZN9)
# T1 sequence (Q9QZN9 whole entry): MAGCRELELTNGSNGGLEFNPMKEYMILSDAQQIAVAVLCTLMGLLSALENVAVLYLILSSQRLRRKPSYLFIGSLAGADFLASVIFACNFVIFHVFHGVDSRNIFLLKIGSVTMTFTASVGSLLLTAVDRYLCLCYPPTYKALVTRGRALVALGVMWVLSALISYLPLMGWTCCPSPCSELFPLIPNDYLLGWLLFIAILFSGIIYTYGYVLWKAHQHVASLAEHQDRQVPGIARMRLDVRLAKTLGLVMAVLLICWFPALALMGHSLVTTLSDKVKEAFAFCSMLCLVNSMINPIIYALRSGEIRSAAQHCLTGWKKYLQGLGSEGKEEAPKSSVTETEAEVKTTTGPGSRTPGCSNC
row,Compound,Ki [nM]
1,CCCn1c(C)c(C(=O)c2cccc3ccccc23)c2ccccc21,269
2,"CCCCCCC(C)(C)c1ccc([C@H]2C[C@@H](O)CC[C@@H]2CCCO)c(O)c1 [CP-56667 [(+)-AC],XV]",0.64
3,CCCCCCC(C)(C)c1ccc2c(c1)OC(C)(C)[C@@H]1CC=C(CO)C[C@@H]21 [JWH-051],3.16

# Target: Cannabinoid receptor 2 (Homo sapiens, UniProt P34972)
# Sequence (P34972 whole entry): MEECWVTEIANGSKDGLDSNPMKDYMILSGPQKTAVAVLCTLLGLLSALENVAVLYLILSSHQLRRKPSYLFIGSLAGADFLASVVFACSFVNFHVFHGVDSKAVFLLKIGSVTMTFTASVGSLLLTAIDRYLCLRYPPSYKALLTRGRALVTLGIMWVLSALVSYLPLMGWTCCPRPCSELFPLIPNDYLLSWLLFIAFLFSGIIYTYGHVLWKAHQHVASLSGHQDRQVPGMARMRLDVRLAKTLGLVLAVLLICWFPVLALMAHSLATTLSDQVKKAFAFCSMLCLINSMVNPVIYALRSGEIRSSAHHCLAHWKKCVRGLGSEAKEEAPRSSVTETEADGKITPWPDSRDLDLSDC
row,Compound,Ki [nM]
1,CCCCCCC(C)(C)c1ccc2c(c1)OC(C)(C)[C@@H]1CC=C(CO)C[C@@H]21 [JWH-051],0.33

# Target: Cannabinoid receptor 2 (Mus musculus, UniProt P47936)
# Sequence (P47936 whole entry): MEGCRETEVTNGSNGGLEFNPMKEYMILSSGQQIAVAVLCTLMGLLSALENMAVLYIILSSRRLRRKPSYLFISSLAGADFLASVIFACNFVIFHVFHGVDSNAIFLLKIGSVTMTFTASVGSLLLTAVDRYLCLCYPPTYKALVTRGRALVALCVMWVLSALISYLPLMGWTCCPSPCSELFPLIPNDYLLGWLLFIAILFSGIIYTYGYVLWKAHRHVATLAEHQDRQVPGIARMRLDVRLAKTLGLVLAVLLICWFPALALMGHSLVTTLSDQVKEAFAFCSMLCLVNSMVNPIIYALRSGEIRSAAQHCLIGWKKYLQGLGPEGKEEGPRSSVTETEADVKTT
row,Compound,Ki [nM]
1,CCCn1c(C)c(C(=O)c2cccc3ccccc23)c2ccccc21,431
2,CCCCC/C=C\C/C=C\C/C=C\C/C=C\CCCC(=O)NCCO [Arachidonoyl ethanolamide],1480
3,"CCCCCCC(C)(C)c1ccc([C@H]2C[C@@H](O)CC[C@@H]2CCCO)c(O)c1 [CP-56667 [(+)-AC],XV]",0.73
4,CCCCCCC(C)(C)c1ccc2c(c1)OC(C)(C)[C@@H]1CC=C(CO)C[C@@H]21 [JWH-051],0.72
5,CCCCCc1cc(O)c2c(c1)OC(C)(C)[C@@H]1CCC(C)=CC21 (stereo not given in full) [Tetrahydrocannabinol],27.3
6,Cc1c(C(=O)c2cccc3ccccc23)c2cccc3c2n1[C@H](CN1CCOCC1)CO3 [WIN55212-2],9.46

# Source: BindingDB's records for PubMed 10688601 (Virginia Commonwealth University, 2000)
